According to article PMC7906907, “Targeting STAT3 by a small molecule suppresses pancreatic cancer progression” (Oncogene, 2021):
pKd: −log10 of the molar value.

Key:
[1] = biological target: His-STAT3^127-722 protein (Homo sapiens, UniProt P40763); test: Fluorescence polarization (FP) assay, STAT3-phosphopeptide interaction; type: binding; design: We purified amino acids 127–722 of the STAT3 protein for this assay; made in house; details: Supplementary Table 1; inhibition of STAT3 dimerization in FP assay; read-out: FP assay (IC50 μM)
Chain of His-STAT3^127-722 protein (P40763 127-722): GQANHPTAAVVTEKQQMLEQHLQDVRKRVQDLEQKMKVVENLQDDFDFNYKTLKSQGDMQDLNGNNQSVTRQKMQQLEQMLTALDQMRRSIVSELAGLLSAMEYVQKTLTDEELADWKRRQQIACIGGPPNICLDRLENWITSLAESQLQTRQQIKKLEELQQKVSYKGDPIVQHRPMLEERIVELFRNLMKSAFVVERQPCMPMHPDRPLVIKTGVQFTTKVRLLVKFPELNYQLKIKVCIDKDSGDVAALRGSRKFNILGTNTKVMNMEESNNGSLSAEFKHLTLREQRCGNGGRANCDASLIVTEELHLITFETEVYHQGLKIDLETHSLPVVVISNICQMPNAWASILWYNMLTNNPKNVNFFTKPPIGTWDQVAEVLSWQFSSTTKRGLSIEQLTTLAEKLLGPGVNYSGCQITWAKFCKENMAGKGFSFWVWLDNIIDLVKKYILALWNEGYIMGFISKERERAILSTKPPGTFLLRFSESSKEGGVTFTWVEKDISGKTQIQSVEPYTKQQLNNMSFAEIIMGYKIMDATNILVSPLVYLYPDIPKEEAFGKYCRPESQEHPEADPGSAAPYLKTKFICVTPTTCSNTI
Description: A Purified STAT3 protein was incubated with labeled phosphopeptide, 5-carboxyfluorescein-GpYLPQTV-NH2 for 1 h at 37 °C. FP signals were measured, and the data were analyzed using Graph Pad 7.0 software. […] C Different concentrations of N4 were pre-incubated with recombined STAT3 protein for 1 h, then 10 nM of labeled peptide was added for 1 h. The IC50 was calculated using Graph Pad 7.0.
The labeled phosphopeptide: 5-carboxyfluorescein-GpYLPQTV-NH2 (where pY represents phospho-Tyr) was used as the STAT3 binding probe. To evaluate the effect of compounds in inhibiting STAT3-peptide interaction, serial dilutions of the STAT3 competitors were prepared. The diluted compounds were added to the reaction mixture in 100 μl of FP buffer (50 mM HEPES, pH 7.5, 150 mM NaCl, 0.1% NP-40, and 1 mM dithiothreitol) containing 500 nM his-STAT3^127–722 protein for pre-incubation at 37 °C for 1 h. Then, 10 nM of the labeled peptide was added and incubated for 1 h. After incubation, FP was measured on a Cytation^TM 5 cell imaging multi-mode Reader (BioTek) using excitation and emission wavelengths of 480 nm and 535 nm, respectively. Each reaction was repeated two or three times. Binding or competitive parameters were calculated from a nonlinear regression using GraphPad Prism 7.0.

STAT3^127–722 protein = biological target: T1, STAT3^127–722 protein (Homo sapiens, UniProt P40763); test: Surface plasmon resonance (SPR) assay; type: binding; details: SPR
T1 construct: made in house
T1 sequence (P40763 127-722): as above
Description: Surface plasmon resonance (SPR) analysis was conducted with a Biacore T200 instrument (GE Healthcare) with CM5 sensor chip (GE Healthcare). To test N4 binding of STAT3^127–722 protein, serially diluted concentrations of N4 were injected into the flow system. Experiments were conducted using phosphate buffered saline (PBS) and the analyte was injected at the flow rate of 30 μL/min. The association time was 60 s and the dissociation time was 30 s. Since N4 was dissolved in PBS containing 5% dimethyl sulfoxide and a solvent correction assay was performed to adjust the results. STAT3^127–722 protein was immobilized on the sensor chip (CM5) using the amine-coupling method according to standard protocols. N4 or Stattic at various concentrations were injected into the flow system. […] The KD values were calculated with the kinetics and affinity analysis option of Biacore T200 plus evaluation software (version 3.0).

PAN02-luc [2] = test: Orthotopic pancreatic cancer tumor model; type: in vivo, C57BL/6 mice; details: week 4, C188-9 group
Description: Fig. 7 N4 inhibits tumor growth in an orthotopic pancreatic cancer model. C57BL/6 mice were injected the tail of the pancreas with luciferase-expressing PAN02 cells (PAN02-luc) in matrigel and tumor growth was assessed (A) and quantified (B) by bioluminescent imaging weekly. Data represent the mean ± SD; *P < 0.05, **P < 0.01, ***P < 0.001, ****P < 0.0001, n.s. not significant by one-way ANOVA followed by multiple-comparison tests. (n = 5 mice per group) C After 4 weeks, mice were sacrificed and the pancreas were imaged. The tumor of pancreas were photographed (D) and weighted (E), scale bar, 0.5 cm.
Briefly, specimens of tumor tissue from xenograft models and orthotopic models were fixed with 4% paraformaldehyde solution at 4 °C overnight. […] Then, according to the manufacturer’s instructions (SK-4100; Vector laboratories), the avidin-biotin peroxidase complex was used, followed by colorimetric detection using DAB. Finally, hematoxylin was used to counterstain the sections and coverslips were mounted.
C57BL/6 mice, male, 4–6 week old were obtained from the Animal Center of East China Normal University. All animal experimental protocols were approved by the Animal Investigation Committee of the Institute of Biomedical Sciences, East China Normal University. PAN02 cells that stably expressed luciferase (PAN02-luc) were embedded in Matrigel (BD Biosciences) were injected with 5 × 10^5 in the tail of the pancreas. On the next day (day 0), the mice were subjected to bioluminescent imaging and divided into four groups according to the luciferase luminescence value. Mice were treated with intraperitoneal injection of indicated compound or drug. Tumor growth was analyzed once a week by an IVIS Imaging System (Xenogen Corporation, Alameda, CA) and end of study tumor weight was determined immediately postmortem. […] Images and measurements of bioluminescent signals were acquired and analyzed using Living Image and Xenogen software.

PAN02-luc [3] = test: Pancreatic cancer liver metastatic mouse model; type: in vivo, C57BL/6 mice
Description: C57BL/6 mice were intrasplenically injected with luciferase-expressing PAN02 cells (PAN02-luc) in matrigel and tumor growth was assessed (A) and quantified (B) by bioluminescent imaging weekly. […] C After 4 weeks, mice were sacrificed and livers were imaged. D The body weight of C57BL/6 tumor-bearing mice were measured weekly.
C57BL/6, male, 8-week-old mice were obtained from the Animal Center of East China Normal University. All animal experimental protocols were approved by the Animal Investigation Committee of the Institute of Biomedical Sciences, East China Normal University. PAN02 cells that stably expressed luciferase (PAN02-luc) were embedded in Matrigel (BD Biosciences) and intrasplenically injected into mice. Tumors were allowed to grow for 1 week and treatment of the mice with either compound or control was started after grouping of the mice according to average bioluminescence. The IVIS Imaging System (Xenogen Corporation) was used to monitor pancreatic tumor growth and metastasis. Images and measurements of bioluminescent signals were acquired and analyzed using Living Image and Xenogen software.

IC50 [1] | pKd (STAT3^127–722 protein; STAT3^127–722 immobilized on CM5 chip, 25 °C) | pKd (STAT3^127–722 protein; value given in figure) | SMILES | tumor volume suppressed compared with the control group (PAN02-luc [2]) | all mice died by week (PAN02-luc [3]; C188-9 group, n = 5) | tumor metastasis suppressed compared with the control group (PAN02-luc [3]; week 4, C188-9 group)
4.99 µM | 5.02 | 5.02 | O=[N+]([O-])c1ccc2c(c1)S(=O)(=O)C=C2 [Stattic, reference compound] |  |  | 
 |  |  | COc1ccc(S(=O)(=O)Nc2cc(-c3c(O)ccc4ccccc34)c(O)c3ccccc23)cc1 [C188-9, reference compound] | 48.23% | ≤ 6 week | 30.65%
